In brackets after ≈: the same amount, converted by molar mass. Several values for one entry are separate records, joined by “and”; a condition that tells them apart may be missing. Identical values can stand only once.
test system: SARS-CoV-2, isolate USA-WA1/2020; test: microbe, parasite or virus in culture; assay type: cell-based; settings: HeLa-ACE2 SARS-CoV-2 antiviral effect without P-gp inhibitor; maximum measured response of dose series

| Compound | perc_max_measured |
| --- | --- |
| CC(C)[C@@H](Nc1ncnc2[nH]c(-c3cnn(CC(N)=O)c3)cc12)c1ccc2c(n1)OCCO2 (single isomer, unassigned) [ASAP-0012315] | 122.738% |

same assay, conditions: HeLa-ACE2 SARS-CoV-2 antiviral effect without P-gp inhibitor; minimum measured response of dose series

| Compound | perc_min_measured |
| --- | --- |
| CC(C)[C@@H](Nc1ncnc2[nH]c(-c3cnn(CC(N)=O)c3)cc12)c1ccc2c(n1)OCCO2 (single isomer, unassigned) [ASAP-0012315] | 101.22% |

same assay, conditions: HeLa-ACE2 SARS-CoV-2 antiviral effect without P-gp inhibitor; read-out: ec50

| Compound | EC50 |
| --- | --- |
| CC(C)[C@@H](Nc1ncnc2[nH]c(-c3cnn(CC(N)=O)c3)cc12)c1ccc2c(n1)OCCO2 (single isomer, unassigned) [ASAP-0012315] | > 20 µM |

same assay, conditions: HeLa-ACE2 SARS-CoV-2 antiviral effect without P-gp inhibitor; read-out: ec90

| Compound | EC90 |
| --- | --- |
| CC(C)[C@@H](Nc1ncnc2[nH]c(-c3cnn(CC(N)=O)c3)cc12)c1ccc2c(n1)OCCO2 (single isomer, unassigned) [ASAP-0012315] | > 20 µM |

test system: not listed separately; test: LogD; settings: pH 7.4; In vitro LogD

| Compound | logd |
| --- | --- |
| CC(C)[C@@H](Nc1ncnc2[nH]c(-c3cnn(CC(N)=O)c3)cc12)c1ccc2c(n1)OCCO2 (single isomer, unassigned) [ASAP-0012315] | 2.4 |

test system: SARS-CoV-2; test: Antiviral effect in iPSC-derived pneumocyte system; assay type: cell-based; settings: iPSC pneumocytes SARS-CoV-2 antiviral effect

| Compound | EC50 | EC90 |
| --- | --- | --- |
| CC(C)[C@@H](Nc1ncnc2[nH]c(-c3cnn(CC(N)=O)c3)cc12)c1ccc2c(n1)OCCO2 (single isomer, unassigned) [ASAP-0012315] | > 50 µM | > 50 µM |

same assay, conditions: iPSC pneumocytes SARS-CoV-2 antiviral effect; maximum measured response of dose series

| Compound | perc_max_measured |
| --- | --- |
| CC(C)[C@@H](Nc1ncnc2[nH]c(-c3cnn(CC(N)=O)c3)cc12)c1ccc2c(n1)OCCO2 (single isomer, unassigned) [ASAP-0012315] | 94.962% |

same assay, conditions: iPSC pneumocytes SARS-CoV-2 antiviral effect; minimum measured response of dose series

| Compound | perc_min_measured |
| --- | --- |
| CC(C)[C@@H](Nc1ncnc2[nH]c(-c3cnn(CC(N)=O)c3)cc12)c1ccc2c(n1)OCCO2 (single isomer, unassigned) [ASAP-0012315] | 56.467% |

test system: not listed separately; test: Hepatic microsomal stability, HLM; assay type: in vitro ADME, human; settings: In vitro human liver microsomal stability

| Compound | clint | perc_remaining | t_half |
| --- | --- | --- | --- |
| CC(C)[C@@H](Nc1ncnc2[nH]c(-c3cnn(CC(N)=O)c3)cc12)c1ccc2c(n1)OCCO2 (single isomer, unassigned) [ASAP-0012315] | 18.0 µL/min/mg | 77.0% | 91.8 min |

same assay, conditions: In vitro human liver microsomal stability; no cofactor

| Compound | perc_remaining_no_cofactor |
| --- | --- |
| CC(C)[C@@H](Nc1ncnc2[nH]c(-c3cnn(CC(N)=O)c3)cc12)c1ccc2c(n1)OCCO2 (single isomer, unassigned) [ASAP-0012315] | 95.0% |

test system: not listed separately; test: Hepatic microsomal stability, MLM; assay type: in vitro ADME; settings: In vitro mouse liver microsomal stability

| Compound | clint | perc_remaining | t_half |
| --- | --- | --- | --- |
| CC(C)[C@@H](Nc1ncnc2[nH]c(-c3cnn(CC(N)=O)c3)cc12)c1ccc2c(n1)OCCO2 (single isomer, unassigned) [ASAP-0012315] | 9.0 µL/min/mg | 90.0% | 182.3 min |

same assay, conditions: In vitro mouse liver microsomal stability, no cofactor

| Compound | perc_remaining_no_cofactor |
| --- | --- |
| CC(C)[C@@H](Nc1ncnc2[nH]c(-c3cnn(CC(N)=O)c3)cc12)c1ccc2c(n1)OCCO2 (single isomer, unassigned) [ASAP-0012315] | 102.0% |

test system: not listed separately; test: Permeability Papp (AB) MDR1/MDCKII; settings: In vitro MDR1-MDCKII permeability, B to A, no inhibitor

| Compound | papp_b_to_a_mean |
| --- | --- |
| CC(C)[C@@H](Nc1ncnc2[nH]c(-c3cnn(CC(N)=O)c3)cc12)c1ccc2c(n1)OCCO2 (single isomer, unassigned) [ASAP-0012315] | 2.3 ×10⁻⁶ cm/s and 3.5 ×10⁻⁶ cm/s |

same assay, conditions: In vitro MDR1-MDCKII permeability, recovery A to B, no inhibitor

| Compound | perc_recovery_a_to_b_mean |
| --- | --- |
| CC(C)[C@@H](Nc1ncnc2[nH]c(-c3cnn(CC(N)=O)c3)cc12)c1ccc2c(n1)OCCO2 (single isomer, unassigned) [ASAP-0012315] | 59.0% and 72.1% and 66.1% |

same assay, conditions: In vitro MDR1-MDCKII permeability, recovery B to A, no inhibitor

| Compound | perc_recovery_b_to_a_mean |
| --- | --- |
| CC(C)[C@@H](Nc1ncnc2[nH]c(-c3cnn(CC(N)=O)c3)cc12)c1ccc2c(n1)OCCO2 (single isomer, unassigned) [ASAP-0012315] | 78.3% and 92.2% |

same assay, conditions: MDR1-MDCKII, recovery A to B, with inhibitor Cyclosporin A

| Compound | perc_recovery_a_to_b_inhibitor_mean |
| --- | --- |
| CC(C)[C@@H](Nc1ncnc2[nH]c(-c3cnn(CC(N)=O)c3)cc12)c1ccc2c(n1)OCCO2 (single isomer, unassigned) [ASAP-0012315] | 64.5% |

same assay, conditions: MDR1-MDCKII, recovery A to B, with inhibitor Verapamil

| Compound | perc_recovery_a_to_b_inhibitor_mean |
| --- | --- |
| CC(C)[C@@H](Nc1ncnc2[nH]c(-c3cnn(CC(N)=O)c3)cc12)c1ccc2c(n1)OCCO2 (single isomer, unassigned) [ASAP-0012315] | 96.8% |

same assay, conditions: MDR1-MDCKII, recovery B to A, with inhibitor Cyclosporin A

| Compound | perc_recovery_b_to_a_inhibitor_mean |
| --- | --- |
| CC(C)[C@@H](Nc1ncnc2[nH]c(-c3cnn(CC(N)=O)c3)cc12)c1ccc2c(n1)OCCO2 (single isomer, unassigned) [ASAP-0012315] | 57.4% |

same assay, conditions: MDR1-MDCKII, recovery B to A, with inhibitor Verapamil

| Compound | perc_recovery_b_to_a_inhibitor_mean |
| --- | --- |
| CC(C)[C@@H](Nc1ncnc2[nH]c(-c3cnn(CC(N)=O)c3)cc12)c1ccc2c(n1)OCCO2 (single isomer, unassigned) [ASAP-0012315] | 85.3% |

test system: iPSC pneumocytes; test: iPSC pneumocytes cytotoxicity; assay type: cell-based; settings: not given
Excerpt: Supplement media-1.zip/Cytotoxicity.csv, table | column: cc10; cc50; perc_min_measured; perc_max_measured

| Compound | CC50 | cc10 |
| --- | --- | --- |
| CC(C)[C@@H](Nc1ncnc2[nH]c(-c3cnn(CC(N)=O)c3)cc12)c1ccc2c(n1)OCCO2 (single isomer, unassigned) [ASAP-0012315] | > 50 µM | > 50.0 µM |

same assay, conditions: highest measured response of the dose series

| Compound | perc_max_measured |
| --- | --- |
| CC(C)[C@@H](Nc1ncnc2[nH]c(-c3cnn(CC(N)=O)c3)cc12)c1ccc2c(n1)OCCO2 (single isomer, unassigned) [ASAP-0012315] | 105.354% |

same assay, conditions: lowest measured response of the dose series

| Compound | perc_min_measured |
| --- | --- |
| CC(C)[C@@H](Nc1ncnc2[nH]c(-c3cnn(CC(N)=O)c3)cc12)c1ccc2c(n1)OCCO2 (single isomer, unassigned) [ASAP-0012315] | 100.058% |

test system: HeLa-ACE2 cells; test: not given; settings: protocol HeLa-ACE2 cytotoxicity; highest measured response of the dose series

| Compound | perc_max_measured |
| --- | --- |
| CC(C)[C@@H](Nc1ncnc2[nH]c(-c3cnn(CC(N)=O)c3)cc12)c1ccc2c(n1)OCCO2 (single isomer, unassigned) [ASAP-0012315] | 91.832% |

same assay, conditions: protocol HeLa-ACE2 cytotoxicity; lowest measured response of the dose series

| Compound | perc_min_measured |
| --- | --- |
| CC(C)[C@@H](Nc1ncnc2[nH]c(-c3cnn(CC(N)=O)c3)cc12)c1ccc2c(n1)OCCO2 (single isomer, unassigned) [ASAP-0012315] | 81.293% |

test system: not listed separately; test: in vitro; set-up: Cytotoxicity in iPSC-derived pneumocytes, CC50; settings: human, ipsc-derived pneumocytes; ASAP-0008327-001=ASAP-0012315-001; read-out: 50.0
Excerpt: Finally, we consider the hypothesis that interferon response triggers ADP-ribosylation, thus profiling the compounds in enhanced and physiologically relevant interferon environments could reveal detectable antiviral effects. […] Furthermore, HeLa-ACE2 cells, and all cancerous cell lines, display defective innate immune response ([1]). As such, we also assess our compound in a primary-like iPSC-derived pneumocyte system (Figure 7C), showing likewise a lack of antiviral activity in this physiologically relevant innate immunity system.

| Compound | CC50 |
| --- | --- |
| CC(C)[C@@H](Nc1ncnc2[nH]c(-c3cnn(CC(N)=O)c3)cc12)c1ccc2c(n1)OCCO2 (single isomer, unassigned) [ASAP-0012315] | > 50 µM |

test system: not listed separately; test: In vitro kinetic solubility; settings: In vitro kinetic solubility, ph 7.4

| Compound | solubility_mean |
| --- | --- |
| CC(C)[C@@H](Nc1ncnc2[nH]c(-c3cnn(CC(N)=O)c3)cc12)c1ccc2c(n1)OCCO2 (single isomer, unassigned) [ASAP-0012315] | 395 µM (≈ 177 µg/mL) |
